How the values were obtained:
ATR = biological target: T1, ATR (Homo sapiens, UniProt Q13535); test: Western blot of phospho-CHK1(S345) in HU-treated cells; format: cell-based; conditions: 5 μM ATRi; HU-treated U2OS cells
T1 construct: endogenous in cells; host or cells: U2OS (human osteosarcoma)
Description: FIG. 3 is a Western Blot (“WB”) of U2OS cells treated with ATRi for 30 minutes prior to a 3-hour HU treatment. WB analysis was performed against phospho-CHK1(S345), CHK1 and Actin.
(§1) Cells were harvested and lysed in modified radioimmunoprecipitation assay (RIPA) buffer (50 mM Tris-HCl pH 7.5, 150 mM NaCl, 1% tergitol, 0.25% sodium deoxycholate, 5 mM EDTA) supplemented with Complete EDTA-free protease inhibitor cocktail (Roche), 1 mM PMSF, 5 mM sodium fluoride, 10 mM β-glycerol-phosphate and 0.4 mM sodium orthovanadate. Whole cell lysates were cleared with 5 minute centrifugation at 13,000 rpm at 4° C. and mixed with 3×SDS sample buffer (bromophenol blue, stacking gel buffer, 50% glycerol, 3% SDS and 60 mM DTT). After being resolved on SDS-PAGE gels, proteins were then transferred onto polyvinylidene difluoride (PVDF) membranes and detected with designated antibodies.

hTERT RPE-1 cells [1] = test: DR-GFP assay of HR-mediated repair; format: cell-based, Human; conditions: ATRi 8 days vs 2 days
Description: (§2) FIGS. 14A-14B show WB analysis of hTERT RPE-1 (FIG. 14A) or HCT116 (colon cancer)(FIG. 14B) cells after 8 day chronic treatment with 5 μM ATRi or ATMi. […] FIGS. 14D-14E are bar graphs showing the analysis of HR-mediated repair using the DR-GFP system. Relative fold change of GFP positive hTERT RPE-1 (FIG. 14D) or HCT116 (FIG. 14E) cells over DMSO after ATRi treatment. (Error bars=SEM, N≥3, ****P-value<0.0001; one sample-t-test was used for the statistical analysis comparing 2 days versus 8 days of treatment).
(§3) Human U2OS, HCT116, hTERT RPE-1, HEK293T, HeLa, U87, T98G, A2780, and human skin fibroblast cells (GM08398 and GM18366) were grown in DMEM media supplemented with 10% bovine calf serum, penicillin/streptomycin and non-essential amino acids. […]
(§4) For the DR-GFP assay, cells (U2OS, HCT116, hTERT RPE-1, HEK293T, HeLa, U87, T98G, A2780, 293-T-REX-E2F6 cells and SV40 large T antigen transformed hTERT RPE-1) were transfected with the mCherry plasmid or DR-GFP reporter plasmid (pDR-GFP; addgene plasmid 26475) together with a plasmid coding for I-SceI (pCBASceI; addgene plasmid 26477) or DR-GFP reporter plasmid together with an empty plasmid pCAGGS. Two days after transfection, cells were trypsinized, resuspended in PBS and then analyzed by flow cytometry using FACSAria Fusion or Accuri C6 cytometer (BD). […]

[2] = system: HCT116 colon cancer cell line; test: DR-GFP assay of HR-mediated repair; format: cell-based, Human; conditions: ATRi 8 days vs 2 days
Description: as §2, §3, §4

[3] = system: HCT116 (colon cancer) and indicated cancer cell lines; test: Immunoblotting of HR factor abundance in cancer cell lines; format: cell-based, Human; conditions: cancer cells; 5 μM ATRi, 8 days
Description: as §2, §3
as §1, with “Whole cell lysates were cleared with 5 minute centrifugation at 13,000 rpm at 4° C. and mixed with 3×SDS sample buffer (bromophenol blue, stacking gel buffer, 50% glycerol, 3% SDS and 60 mM DTT).” left out

U2OS cells [4] = test: Immunoblotting of HR factor abundance; format: cell-based, Human
Description: FIG. 5A is a schematic diagram of the SILAC/MS experiment. FIG. 5B is a quadrant diagram of the SILAC/MS experiment. Each dot represents a different identified protein. Proteins with abundance reduced two-fold or more after ATRi treatment are shown in the upper-left corner (white quadrant). FIG. 5C is a WB analysis of U2OS cells after 8 days of chronic treatment with 5 μM of ATRi or ATMi. FIG. 5D is a time course WB analysis of U2OS cells during chronic treatment with 5 μM ATRi. FIG. 5E is a WB analysis of U2OS cells at distinct cell cycle stages. Cells were treated with 1 mM hydroxyurea (HU) or 50 ng/ml nocodazole (Noc) for 24 hours. HU treated cells were released for 2.5 hours in HU-free media. FIG. 5F is a WB analysis of U2OS cells untreated or treated for 8 days with 5 μM ATRi.
Human U2OS, HCT116, hTERT RPE-1, HEK293T, HeLa, U87, T98G, A2780, and human skin fibroblast cells (GM08398 and GM18366) were grown in DMEM media supplemented with 10% bovine calf serum, penicillin/streptomycin and non-essential amino acids. SV40 large T antigen transformed hTERT RPE-1 cells were generated by infecting hTERT RPE-1 cells with a SV40 large T antigen (SV40 LT)-expressing retrovirus and were selected using 500 μg/ml G418. The stable SV40 large T antigen transformed hTERT RPE-1 cell line was then maintained in culture media supplemented 500 μg/ml G418. For chronic treatment with ATR inhibitor (ATRi, VE-821) or ATM inhibitor (ATMi, KU-55933), cells were maintained in media with 5 μM ATR or ATM inhibitor respectively for 8 days before cells were subjected to western blot analysis, proteomic analysis, DR-GFP/EJ5-GFP assay or immunofluorescent staining. For CHK1 inhibitor (UCN-01), cells were treated for 5 days with 0.2 μM of inhibitor before the analysis. Primary human fibroblast cells from control subjects (GM08398) and patients with Seckel syndrome (GM18366, ATR-defective) were obtained from Coriell Institute for Medical Research, Camden, N.J.
as §1

hTERT RPE-1 cells [5] = test: Immunoblotting of HR factor abundance; format: cell-based, Human; conditions: 5 μM ATRi, 8 days
Description: as §2, §3
as §1, with “Whole cell lysates were cleared with 5 minute centrifugation at 13,000 rpm at 4° C. and mixed with 3×SDS sample buffer (bromophenol blue, stacking gel buffer, 50% glycerol, 3% SDS and 60 mM DTT).” left out

U2OS cells [6] = test: EJ5-GFP (NHEJ) assay; format: cell-based, Human; conditions: 5 μM ATRi, 8 days
Description: Human U2OS, HCT116, hTERT RPE-1, HEK293T, HeLa, U87, T98G, A2780, and human skin fibroblast cells (GM08398 and GM18366) were grown in DMEM media supplemented with 10% bovine calf serum, penicillin/streptomycin and non-essential amino acids. SV40 large T antigen transformed hTERT RPE-1 cells were generated by infecting hTERT RPE-1 cells with a SV40 large T antigen (SV40 LT)-expressing retrovirus and were selected using 500 μg/ml G418. The stable SV40 large T antigen transformed hTERT RPE-1 cell line was then maintained in culture media supplemented 500 μg/ml G418. […]
as §4

T1 sequence (Q13535 whole entry): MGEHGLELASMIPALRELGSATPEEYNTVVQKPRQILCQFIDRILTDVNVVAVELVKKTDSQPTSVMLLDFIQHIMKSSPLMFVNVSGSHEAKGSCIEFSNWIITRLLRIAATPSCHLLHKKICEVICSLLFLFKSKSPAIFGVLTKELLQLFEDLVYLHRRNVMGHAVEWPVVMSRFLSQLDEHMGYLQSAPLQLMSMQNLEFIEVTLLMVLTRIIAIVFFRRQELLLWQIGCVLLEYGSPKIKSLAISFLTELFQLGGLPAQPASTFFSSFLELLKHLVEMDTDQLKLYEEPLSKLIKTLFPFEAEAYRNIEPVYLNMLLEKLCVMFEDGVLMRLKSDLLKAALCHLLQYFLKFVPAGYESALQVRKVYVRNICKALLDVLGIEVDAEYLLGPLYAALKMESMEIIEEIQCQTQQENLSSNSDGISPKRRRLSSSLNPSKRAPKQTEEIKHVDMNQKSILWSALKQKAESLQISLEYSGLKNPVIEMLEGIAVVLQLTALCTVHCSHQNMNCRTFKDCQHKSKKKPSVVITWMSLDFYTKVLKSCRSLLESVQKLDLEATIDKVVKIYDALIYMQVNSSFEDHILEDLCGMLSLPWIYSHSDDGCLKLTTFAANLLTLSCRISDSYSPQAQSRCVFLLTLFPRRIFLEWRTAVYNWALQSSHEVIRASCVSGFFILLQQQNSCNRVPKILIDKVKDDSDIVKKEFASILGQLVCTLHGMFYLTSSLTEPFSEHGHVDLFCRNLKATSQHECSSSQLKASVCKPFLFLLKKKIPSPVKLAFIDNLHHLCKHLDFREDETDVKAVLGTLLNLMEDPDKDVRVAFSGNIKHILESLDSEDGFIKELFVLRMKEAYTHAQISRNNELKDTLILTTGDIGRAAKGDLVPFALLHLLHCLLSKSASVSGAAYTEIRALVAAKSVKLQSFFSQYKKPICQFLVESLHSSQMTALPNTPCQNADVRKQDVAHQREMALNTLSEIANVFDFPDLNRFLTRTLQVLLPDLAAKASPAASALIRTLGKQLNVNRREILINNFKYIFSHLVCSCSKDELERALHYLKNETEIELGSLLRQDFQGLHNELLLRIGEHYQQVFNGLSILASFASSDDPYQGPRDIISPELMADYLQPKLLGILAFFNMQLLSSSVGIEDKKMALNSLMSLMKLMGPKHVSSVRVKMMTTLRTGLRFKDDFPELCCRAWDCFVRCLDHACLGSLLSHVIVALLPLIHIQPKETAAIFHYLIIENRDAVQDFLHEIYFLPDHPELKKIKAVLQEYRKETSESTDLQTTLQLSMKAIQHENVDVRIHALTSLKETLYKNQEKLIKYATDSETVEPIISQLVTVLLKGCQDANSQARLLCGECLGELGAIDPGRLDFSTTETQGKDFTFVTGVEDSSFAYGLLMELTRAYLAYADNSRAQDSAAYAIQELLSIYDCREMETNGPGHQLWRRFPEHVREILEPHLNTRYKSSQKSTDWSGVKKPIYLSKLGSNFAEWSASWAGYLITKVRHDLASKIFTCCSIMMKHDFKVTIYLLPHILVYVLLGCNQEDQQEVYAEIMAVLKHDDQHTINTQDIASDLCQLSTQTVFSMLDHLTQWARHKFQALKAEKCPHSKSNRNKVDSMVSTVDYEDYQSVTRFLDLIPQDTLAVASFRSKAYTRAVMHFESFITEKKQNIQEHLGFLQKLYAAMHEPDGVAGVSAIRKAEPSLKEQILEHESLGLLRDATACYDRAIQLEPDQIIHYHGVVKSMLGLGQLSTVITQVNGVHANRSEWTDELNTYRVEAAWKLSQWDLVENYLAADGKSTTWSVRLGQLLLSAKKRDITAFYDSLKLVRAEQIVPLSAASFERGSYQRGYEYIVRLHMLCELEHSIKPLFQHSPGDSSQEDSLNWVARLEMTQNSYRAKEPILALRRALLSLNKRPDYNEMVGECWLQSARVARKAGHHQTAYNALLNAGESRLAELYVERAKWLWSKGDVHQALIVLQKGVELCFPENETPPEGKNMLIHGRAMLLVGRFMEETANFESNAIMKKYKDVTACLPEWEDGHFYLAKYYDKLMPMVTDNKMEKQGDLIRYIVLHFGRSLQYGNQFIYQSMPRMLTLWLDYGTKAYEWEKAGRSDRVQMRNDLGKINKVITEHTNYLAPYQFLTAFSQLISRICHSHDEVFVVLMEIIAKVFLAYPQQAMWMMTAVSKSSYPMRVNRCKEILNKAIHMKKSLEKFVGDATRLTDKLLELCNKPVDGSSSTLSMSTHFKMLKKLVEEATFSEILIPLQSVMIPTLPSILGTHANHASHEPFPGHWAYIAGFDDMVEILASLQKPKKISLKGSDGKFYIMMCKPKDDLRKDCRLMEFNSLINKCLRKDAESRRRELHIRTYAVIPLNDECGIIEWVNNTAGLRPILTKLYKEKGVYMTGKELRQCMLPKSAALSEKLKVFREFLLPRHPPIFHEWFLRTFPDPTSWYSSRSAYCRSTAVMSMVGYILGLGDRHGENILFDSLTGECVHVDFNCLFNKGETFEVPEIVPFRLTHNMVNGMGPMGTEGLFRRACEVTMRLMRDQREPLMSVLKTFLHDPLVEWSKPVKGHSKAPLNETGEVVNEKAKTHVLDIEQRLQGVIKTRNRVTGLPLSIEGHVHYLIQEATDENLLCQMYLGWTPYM
T1 sequence (Q8WXE1 whole entry partner): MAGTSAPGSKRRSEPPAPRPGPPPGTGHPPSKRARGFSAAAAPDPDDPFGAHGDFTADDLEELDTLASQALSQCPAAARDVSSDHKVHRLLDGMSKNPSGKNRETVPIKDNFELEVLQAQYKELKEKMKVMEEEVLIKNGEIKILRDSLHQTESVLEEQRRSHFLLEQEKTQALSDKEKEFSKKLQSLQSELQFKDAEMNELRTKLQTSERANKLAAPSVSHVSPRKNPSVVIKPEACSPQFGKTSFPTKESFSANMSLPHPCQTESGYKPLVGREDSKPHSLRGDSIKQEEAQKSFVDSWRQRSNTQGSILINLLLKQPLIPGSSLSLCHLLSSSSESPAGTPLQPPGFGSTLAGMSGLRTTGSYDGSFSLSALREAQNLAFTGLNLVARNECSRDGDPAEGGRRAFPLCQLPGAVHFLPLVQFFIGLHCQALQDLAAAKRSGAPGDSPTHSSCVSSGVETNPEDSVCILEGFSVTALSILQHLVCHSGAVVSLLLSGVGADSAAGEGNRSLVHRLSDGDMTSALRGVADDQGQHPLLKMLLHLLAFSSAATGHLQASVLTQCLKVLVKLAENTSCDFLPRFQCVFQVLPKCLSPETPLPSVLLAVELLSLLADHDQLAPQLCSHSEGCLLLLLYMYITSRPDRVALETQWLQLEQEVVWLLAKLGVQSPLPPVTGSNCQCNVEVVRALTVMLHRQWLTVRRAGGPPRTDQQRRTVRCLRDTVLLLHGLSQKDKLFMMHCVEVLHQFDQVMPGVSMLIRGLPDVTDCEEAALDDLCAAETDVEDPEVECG

In the case of `CS(=O)(=O)c1ccc(-c2cnc(N)c(C(=O)Nc3ccccc3)n2)cc1` [ATRi, VE-821], the “ATR inhibition monitored by CHK1 phosphorylation” value (ATR) is reported as “almost complete ATR inhibition”, the “HR-mediated repair efficiency (DR-GFP), chronic vs short-term (2 day) treatment” value (hTERT RPE-1 cells [1]) is reported as “did not result in a striking drop in HR-mediated repair efficiency” and the “HR-mediated repair efficiency (DR-GFP), chronic vs short-term treatment” value [2] is reported as “significantly more severe than that of short-term treatment”. For the same compound, the “Abundance of BRCA1 (WB)” value [3] was “severe reduction in the abundance of BRCA1”, the “Changes in abundance of NHEJ factors 53BP1 and PTIP (WB)” value (U2OS cells [4]; 5 μM ATRi, 8 days) was “minimal” and the “Changes in protein abundance, time course (WB)” value (U2OS cells [4]; 5 μM ATRi, after 2 and 4 days) was “minor changes in protein abundance”. The “Changes in protein abundance, time course (WB)” value (U2OS cells [4]; 5 μM ATRi, after 6 and 8 days) was “changes become more striking”, the “Abundance of several proteins involved in HR-mediated repair (WB)” value (U2OS cells [4]; chronic ATR inhibition) was “severely reduced” and the “Protein levels of RAD51 and TOPBP1 (WB)” value (U2OS cells [4]; chronic ATR inhibition, 5 μM, 8 days) was “reduced”. For the same compound, the “Abundance of BRCA1 (WB)” value (hTERT RPE-1 cells [5]) was “did not result in major changes in the abundance of BRCA1” and the “NHEJ efficiency (EJ5-GFP)” value (U2OS cells [6]) was “does not result in a significant change in NHEJ efficiency”.
